Here are results for ten molecules from patent US20250066388A1, “1,3,4,7-TETRAHYDRO-2H-PYRROLO[3',2':5,6]PYRIDO[2,3-B][1,4]OXAZEPINE BCL-2 INHIBITORS” (AbbVie Inc., priority 2022, published 2025).

In one assay the target is Bcl-2 protein (Homo sapiens (Human), UniProt P10415). As to the kind of experiment: TR-FRET binding assay, Bcl-2. The conditions noted are these: F-Bak peptide probe, GST-Bcl-2. The procedure: (§1) Determination of the utility of compounds having Formula (I) or Formula (II) as binders to and inhibitors of anti-apoptotic Bcl-2 proteins was performed using the Time Resolved-Fluorescence Resonance Energy Transfer (TR-FRET) Assay. Tb-anti-GST antibody was purchased from Invitrogen (Catalog No. PV4216).
Chain of Bcl-2 protein (P10415 other isoform, or with tags, fused parts or gaps): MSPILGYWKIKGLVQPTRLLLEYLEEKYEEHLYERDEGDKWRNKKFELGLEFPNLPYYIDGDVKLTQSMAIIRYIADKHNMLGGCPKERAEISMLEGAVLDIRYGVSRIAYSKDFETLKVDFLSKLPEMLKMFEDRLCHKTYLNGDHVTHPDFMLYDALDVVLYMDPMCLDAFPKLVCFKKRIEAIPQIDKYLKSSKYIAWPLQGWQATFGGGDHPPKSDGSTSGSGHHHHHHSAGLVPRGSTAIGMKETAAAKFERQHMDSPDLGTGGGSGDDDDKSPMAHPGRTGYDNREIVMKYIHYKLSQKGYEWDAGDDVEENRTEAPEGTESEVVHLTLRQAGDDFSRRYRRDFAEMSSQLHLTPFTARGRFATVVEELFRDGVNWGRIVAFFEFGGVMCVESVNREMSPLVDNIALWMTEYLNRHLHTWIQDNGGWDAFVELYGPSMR
A Bcl-2 human encoding sequence was cloned into a pET41A vector (Novagen). The protein was expressed with E. coli. BL21(DE3)-T1R strain in OETB autoinduction medium at 30° C. for 25 hours. The cell pellets were resuspended in lysis buffer (50 mM Tris, 140 mM NaCl, 1 mM DTT, 10% Glycerol, 2 mM MgCl2, pH 7.3) and lysed with Microfluidizer. The Bcl-2 protein in clarified cell-lysate was purified with affinity chromatography (GST and Ni-NTA). The eluate was loaded onto a Superdex 75 column and further purified with a Q Sepharose column. The protein was purified on a phenyl hydrophobic interaction column and dialyzed in the storage buffer (50 mM Tris, 50 mM NaCl, 2 mM DTT, pH 7.5) and stored at −80° C.
(§2) […] of a protein (Bcl-2 or Bcl-xL)/probe/antibody mixture pre-equilibrated for one hour in assay buffer was added to each well at final concentrations listed in Table 6 below.
(§3) The samples were then mixed on a shaker for 1 minute and equilibrated for an additional 3 hours at room temperature. For each assay plate, a probe/antibody and protein/antibody/probe mixture were included as a negative and a positive control, respectively. Fluorescence was measured on the Envision (Perkin Elmer) using a 340/35 nm excitation filter and 520/525 (F-Bak) and 495/510 nm (Tb-labeled anti-GST antibody) emission filters. Inhibition constants (Ki) were determined using Wang's equation (Wang FEBS Lett. 1995, 360, 111-114). The TR-FRET assay can be performed in the presence of varying concentrations of human serum (HS) to determine apparent half maximal inhibitory concentration (IC50) after HS protein binding.
(§4) Inhibition constants were determined using Wang's equation (Wang FEBS Lett. 1995, 360:111-4).

Another assay concerns the target Bcl-xL protein (Homo sapiens (Human), UniProt Q07817). As to the kind of experiment: TR-FRET binding assay, Bcl-xL. The note with it: F-Bak peptide probe. The procedure:
as §1
A human Bcl-xL encoding sequence was cloned into a pET41A vector. The protein was expressed with E. coli. BL21(DE3)-T1R strain in OETB autoinduction medium at 30° C. for 25 hours. The cell pellets were resuspended in lysis buffer (50 mM Tris, 140 mM NaCl, 1 mM DTT, 10% Glycerol, 0.1% Triton X-100, pH 7.5) and lysed with Microfluidizer. The Bcl-xL protein in clarified cell-lysate was purified with GST affinity chromatography. The eluate was dialyzed in the storage buffer (1×PBS, 10% Glycerol, 2 mM DTT, 1 mM Sodium Azide, pH 7.4) and stored at −80° C.
as §2, §3, §4

Chain of Bcl-xL protein (Q07817 other isoform, or with tags, fused parts or gaps): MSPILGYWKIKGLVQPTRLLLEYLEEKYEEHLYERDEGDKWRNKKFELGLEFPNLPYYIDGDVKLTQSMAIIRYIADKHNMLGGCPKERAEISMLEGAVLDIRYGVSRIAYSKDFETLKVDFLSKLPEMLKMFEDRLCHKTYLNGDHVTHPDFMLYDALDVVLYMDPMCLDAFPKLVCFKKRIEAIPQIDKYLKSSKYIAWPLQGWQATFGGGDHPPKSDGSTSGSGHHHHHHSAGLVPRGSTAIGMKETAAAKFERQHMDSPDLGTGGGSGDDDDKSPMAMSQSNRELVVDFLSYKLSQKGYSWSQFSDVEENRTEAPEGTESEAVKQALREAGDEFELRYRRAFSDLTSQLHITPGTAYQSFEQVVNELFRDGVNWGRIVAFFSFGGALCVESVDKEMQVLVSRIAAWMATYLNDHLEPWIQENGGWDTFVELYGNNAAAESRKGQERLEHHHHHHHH

The Ki is a measure of affinity in units of concentration, obtained from inhibition or displacement. Read a high Ki as lower affinity. On to `CC1(C)CC(c2ccc(Cl)cc2)=C2CN3CCN(c4ccc(C(=O)NS(=O)(=O)c5cnc(OCC6(F)CCN(C7COC7)CC6)c(Cl)c5)c(N5CCCOc6nc7[nH]ccc7cc65)c4)C[C@H]3COCCCO[C@@H]2C1` [Example 4, N-((5-chloro-6-((4-fluoro-1-(oxetan-3-yl)piperidin-4-yl)methoxy)pyridin-3-yl)sulfonyl)-4-((4aS,10aR)-14-(4-chlorophenyl)-12,12-dimethyl-1,2,4a,5,8,9,10a,11,13,15-decahydro-7H,12H-benzo[f]pyrazino[2,1-c][1,8]dioxa[4]azacycloundecin-3(4H)-yl)-2-(3,4-dihydro-2H-pyrrolo[3′,2′:5,6]pyrido[2,3-b][1,4]oxazepin-1(7H)-yl)benzamide], for which the Ki worked out at 0.28 nM on Bcl-2 protein and 18.8 nM at Bcl-xL protein.

Take `CO[C@H]1CC[C@H](CNc2ccc(S(=O)(=O)NC(=O)c3ccc(N4CCN5CC6=C(c7ccc(Cl)cc7)CC(C)(C)C[C@H]6OCCCOC[C@@H]5C4)cc3N3CCCOc4nc5[nH]ccc5cc43)cc2[N+](=O)[O-])CC1` [Example 5, 4-((4aS,10aR)-14-(4-chlorophenyl)-12,12-dimethyl-1,2,4a,5,8,9,10a,11,13,15-decahydro-7H,12H-benzo[f]pyrazino[2,1-c][1,8]dioxa[4]azacycloundecin-3(4H)-yl)-2-(3,4-dihydro-2H-pyrrolo[3′,2′:5,6]pyrido[2,3-b][1,4]oxazepin-1(7H)-yl)-N-((4-((((1r,4r)-4-methoxycyclohexyl)methyl)amino)-3-nitrophenyl)sulfonyl)benzamide]: the Ki on Bcl-2 protein came out at 0.149 nM; on Bcl-xL protein, 20 nM.

With `CC1(C)CC(c2ccc(Cl)cc2)=C2CN3CCN(c4ccc(C(=O)NS(=O)(=O)c5cnc(OCC6(F)CCOCC6)c(Cl)c5)c(N5CCCOc6nc7[nH]ccc7cc65)c4)C[C@H]3COCCCO[C@@H]2C1` [Example 7, N-((5-chloro-6-((4-fluorotetrahydro-2H-pyran-4-yl)methoxy)pyridin-3-yl)sulfonyl)-4-((4aS,10aR)-14-(4-chlorophenyl)-12,12-dimethyl-1,2,4a,5,8,9,10a,11,13,15-decahydro-7H,12H-benzo[f]pyrazino[2,1-c][1,8]dioxa[4]azacycloundecin-3(4H)-yl)-2-(3,4-dihydro-2H-pyrrolo[3′,2′:5,6]pyrido[2,3-b][1,4]oxazepin-1(7H)-yl)benzamide], the values for the inhibition constant Ki on Bcl-2 protein and on Bcl-xL protein were 0.0503 nM and over 661 nM, respectively.

Turning to `CC1(C)CC(c2ccc(Cl)cc2)=C2CN3CCN(c4ccc(C(=O)NS(=O)(=O)c5ccc(NC[C@H]6C[C@@](O)(CF)C6)c([N+](=O)[O-])c5)c(N5CCCOc6nc7[nH]ccc7cc65)c4)C[C@H]3COCCCO[C@@H]2C1` [Example 8, 4-((4aS,10aR)-14-(4-chlorophenyl)-12,12-dimethyl-1,2,4a,5,8,9,10a,11,13,15-decahydro-7H,12H-benzo[f]pyrazino[2,1-c][1,8]dioxa[4]azacycloundecin-3(4H)-yl)-2-(3,4-dihydro-2H-pyrrolo[3′,2′:5,6]pyrido[2,3-b][1,4]oxazepin-1(7H)-yl)-N-((4-((((1r,3r)-3-(fluoromethyl)-3-hydroxycyclobutyl)methyl)amino)-3-nitrophenyl)sulfonyl)benzamide], the inhibitory constant (Ki) at Bcl-2 protein is 0.448 nM; at Bcl-xL protein it was 0.125 nM.

Turning to `CC1(C)CC(c2ccc(Cl)cc2)=C2CN3CCN(c4ccc(C(=O)NS(=O)(=O)c5ccc(OCC6(F)CCN(C7COC7)CC6)c(Cl)c5)c(N5CCCOc6nc7[nH]ccc7cc65)c4)C[C@H]3COCCCO[C@@H]2C1` [Example 9, N-(3-chloro-4-{[4-fluoro-1-(oxetan-3-yl)piperidin-4-yl]methoxy}benzene-1-sulfonyl)-4-[(4aS,10aR)-14-(4-chlorophenyl)-12,12-dimethyl-1,2,4a,5,8,9,11,12,13,15-decahydro-7H,10aH-pyrazino[2,1-g][1,5,8]benzodioxazacycloundecin-3(4H)-yl]-2-(3,4-dihydro-2H-pyrrolo[3′,2′:5,6]pyrido[2,3-b][1,4]oxazepin-1(7H)-yl)benzamide], the Ki at Bcl-2 protein worked out at 0.267 nM; at Bcl-xL protein it was 20.6 nM.

In the case of `CC1(C)CC(c2ccc(Cl)cc2)=C2CN3CCN(c4ccc(C(=O)NS(=O)(=O)c5cnc(OC[C@]6(F)CC[C@@H](N7CCOCC7)CC6)c(Cl)c5)c(N5CCCOc6nc7[nH]ccc7cc65)c4)C[C@H]3COCCCO[C@@H]2C1` [Example 10, N-((5-chloro-6-(((1s,4s)-1-fluoro-4-morpholinocyclohexyl)methoxy)pyridin-3-yl)sulfonyl)-4-((4aS,10aR)-14-(4-chlorophenyl)-12,12-dimethyl-1,2,4a,5,8,9,10a,11,13,15-decahydro-7H,12H-benzo[f]pyrazino[2,1-c][1,8]dioxa[4]azacycloundecin-3(4H)-yl)-2-(3,4-dihydro-2H-pyrrolo[3′,2′:5,6]pyrido[2,3-b][1,4]oxazepin-1(7H)-yl)benzamide], the values for the Ki on Bcl-2 protein and on Bcl-xL protein were 0.66 nM and 5.91 nM, respectively.

For the molecule `CC1(C)CC(c2ccc(Cl)cc2)=C2CN3CCN(c4ccc(C(=O)NS(=O)(=O)c5cnc(OC[C@]6(F)CC[C@H](N7CCOCC7)CC6)c(Cl)c5)c(N5CCCOc6nc7[nH]ccc7cc65)c4)C[C@H]3COCCCO[C@@H]2C1` [Example 11, N-((5-chloro-6-(((1r,4r)-1-fluoro-4-morpholinocyclohexyl)methoxy)pyridin-3-yl)sulfonyl)-4-((4aS,10aR)-14-(4-chlorophenyl)-12,12-dimethyl-1,2,4a,5,8,9,10a,11,13,15-decahydro-7H,12H-benzo[f]pyrazino[2,1-c][1,8]dioxa[4]azacycloundecin-3(4H)-yl)-2-(3,4-dihydro-2H-pyrrolo[3′,2′:5,6]pyrido[2,3-b][1,4]oxazepin-1(7H)-yl)benzamide], the Ki was determined as 0.936 nM at Bcl-2 protein and 17.3 nM at Bcl-xL protein.

Regarding `CO[C@H]1CC[C@H](CNc2ccc(S(=O)(=O)NC(=O)c3ccc(N4CCN5CC6=C(c7ccc(Cl)cc7)CC(C)(C)C[C@H]6OCCCOC[C@@H]5C4)cc3N3CCCOc4nc5[nH]ccc5cc43)cc2[N+](=O)[O-])OC1` [Example 13, 4-((4aS,10aR)-14-(4-chlorophenyl)-12,12-dimethyl-1,2,4a,5,8,9,10a,11,13,15-decahydro-7H,12H-benzo[f]pyrazino[2,1-c][1,8]dioxa[4]azacycloundecin-3(4H)-yl)-2-(3,4-dihydro-2H-pyrrolo[3′,2′:5,6]pyrido[2,3-b][1,4]oxazepin-1(7H)-yl)-N-((4-((((2R,5S)-5-methoxytetrahydro-2H-pyran-2-yl)methyl)amino)-3-nitrophenyl)sulfonyl)benzamide], the inhibition constant Ki at Bcl-2 protein came out at 0.35 nM; at Bcl-xL protein, 6.8 nM.

Consider `CC1(C)CC(c2ccc(Cl)cc2)=C2CN3CCN(c4ccc(C(=O)NS(=O)(=O)c5ccc(NC[C@H]6C[C@](O)(CF)C6)c([N+](=O)[O-])c5)c(N5CCCOc6nc7[nH]ccc7cc65)c4)C[C@H]3COCCCO[C@@H]2C1` [Example 16, 4-((4aS,10aR)-14-(4-chlorophenyl)-12,12-dimethyl-1,2,4a,5,8,9,10a,11,13,15-decahydro-7H,12H-benzo[f]pyrazino[2,1-c][1,8]dioxa[4]azacycloundecin-3(4H)-yl)-2-(3,4-dihydro-2H-pyrrolo[3′,2′:5,6]pyrido[2,3-b][1,4]oxazepin-1(7H)-yl)-N-((4-((((1s,3s)-3-(fluoromethyl)-3-hydroxycyclobutyl)methyl)amino)-3-nitrophenyl)sulfonyl)benzamide], for which the values for the Ki at Bcl-2 protein and at Bcl-xL protein were 0.297 nM and 15 nM, respectively.

Take `COCCN1CCC(F)(COc2ncc(S(=O)(=O)NC(=O)c3ccc(N4CCN5CC6=C(c7ccc(Cl)cc7)CC(C)(C)C[C@H]6OCCCOC[C@@H]5C4)cc3N3CCCOc4nc5[nH]ccc5cc43)cc2Cl)CC1` [Example 22, N-((5-chloro-6-((4-fluoro-1-(2-methoxyethyl)piperidin-4-yl)methoxy)pyridin-3-yl)sulfonyl)-4-((4aS,10aR)-14-(4-chlorophenyl)-12,12-dimethyl-1,2,4a,5,8,9,10a,11,13,15-decahydro-7H,12H-benzo[f]pyrazino[2,1-c][1,8]dioxa[4]azacycloundecin-3(4H)-yl)-2-(3,4-dihydro-2H-pyrrolo[3′,2′:5,6]pyrido[2,3-b][1,4]oxazepin-1(7H)-yl)benzamide]: the Ki came out at 0.339 nM at Bcl-2 protein and 14.7 nM on Bcl-xL protein.
